Results from article PMC7932537, “Quantitative profiling of protease specificity” (PLoS Computational Biology, 2021).

What was measured:
[1] = target: T1, MMP-2 (Homo sapiens, UniProt P08253); assay: K(obs) of individual phage substrates (set of 1369); assay type: biochemical; details: MMP2
T1 sequence (P08253 110-660): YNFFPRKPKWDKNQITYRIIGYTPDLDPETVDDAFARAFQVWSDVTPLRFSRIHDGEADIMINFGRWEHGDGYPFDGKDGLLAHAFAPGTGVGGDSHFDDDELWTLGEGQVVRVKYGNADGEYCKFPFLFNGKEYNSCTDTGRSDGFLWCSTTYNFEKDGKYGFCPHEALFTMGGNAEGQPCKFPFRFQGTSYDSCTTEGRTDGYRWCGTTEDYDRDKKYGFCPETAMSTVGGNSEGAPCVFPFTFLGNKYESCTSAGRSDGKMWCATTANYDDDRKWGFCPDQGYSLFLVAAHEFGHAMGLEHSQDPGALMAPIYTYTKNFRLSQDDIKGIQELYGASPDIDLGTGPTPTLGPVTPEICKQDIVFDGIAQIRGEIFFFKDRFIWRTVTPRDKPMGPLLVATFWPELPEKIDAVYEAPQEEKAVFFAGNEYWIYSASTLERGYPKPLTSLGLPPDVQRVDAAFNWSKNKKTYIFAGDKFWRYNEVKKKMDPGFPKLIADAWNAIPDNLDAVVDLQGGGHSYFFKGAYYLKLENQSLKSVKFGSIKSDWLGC

[2] = target: MMP-9 (Homo sapiens, UniProt P14780); assay: as above; assay type: biochemical; details: MMP9, individual phage substrates, set of 1369 peptides
Sequence of MMP-9 (P14780 94-707): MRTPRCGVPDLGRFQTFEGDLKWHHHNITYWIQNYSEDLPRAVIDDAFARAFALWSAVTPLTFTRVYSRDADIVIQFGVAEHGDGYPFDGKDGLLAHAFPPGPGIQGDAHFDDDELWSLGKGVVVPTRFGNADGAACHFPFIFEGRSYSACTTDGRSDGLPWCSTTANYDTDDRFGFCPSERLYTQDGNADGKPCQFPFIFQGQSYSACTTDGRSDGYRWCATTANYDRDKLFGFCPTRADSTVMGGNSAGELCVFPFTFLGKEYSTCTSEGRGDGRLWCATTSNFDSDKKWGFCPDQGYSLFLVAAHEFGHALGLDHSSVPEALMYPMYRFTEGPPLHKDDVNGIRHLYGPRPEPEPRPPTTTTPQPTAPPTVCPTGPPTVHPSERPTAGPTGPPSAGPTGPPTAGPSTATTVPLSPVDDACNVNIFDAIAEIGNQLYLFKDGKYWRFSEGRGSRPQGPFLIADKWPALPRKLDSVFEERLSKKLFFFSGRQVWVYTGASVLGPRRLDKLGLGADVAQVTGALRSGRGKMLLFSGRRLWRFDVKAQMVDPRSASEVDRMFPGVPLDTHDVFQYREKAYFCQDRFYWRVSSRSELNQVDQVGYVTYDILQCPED

[3] = individual phage substrate from the set of 1369 peptides, cleavage position marked by the dash in the sequence
[4] = dash in sequence marks cleavage position
[5] = individual phage substrates, set of 1369 peptides, cleavage position marked by '-' in the sequence
[6] = '-' marks the cleavage position (P1-P1')

Row | Substance | Kobs [1, 3] [M⁻¹ s⁻¹] | Kobs [2, 4] [M⁻¹ s⁻¹] | Kobs [1, 5] [M⁻¹ s⁻¹] | Kobs [2, 6] [M⁻¹ s⁻¹]
1 | RTPLM-LTASG |  |  | 12792.1 | 12792.1
2 | GGSGF-LVAKA | 1327.88 | 0 |  | 
3 | RHLAK-LTASG |  |  | 9740.44 | 0
4 | SGAWN-MRVTA |  |  | 292.668 | 3079.62
5 | AGLDL-LTASG |  |  | 0 | 0
6 | PMARY-LTASG |  |  | 12792.1 | 3637.04
7 | MVPHM-LTASG |  |  | 12792.1 | 12792.1
8 | GAPDQ-LSTAS | 142.481 | 323.705 |  | 
9 | SGPMS-LRMTA |  |  | 7386.83 | 12792.1
10 | GRAWG-LITAS | 3165.09 | 1981.53 |  | 
11 | GGSGF-LVRSL |  |  | 9740.44 | 10866.7
12 | GMVLN-LTASG |  |  | 12792.1 | 7015.91
13 | ELAWH-LTASG | 1981.53 | 1373.05 |  | 
14 | TLPHS-LTASG | 12792.1 | 9740.44 |  | 
15 | GVGHN-LRTAS |  |  | 142.481 | 231.616
16 | YFPLD-MTASG | 3637.04 | 7815.03 |  | 
17 | SGAVA-LRLTA |  |  | 1981.53 | 3438.54
18 | RRPAS-MTASG |  |  | 5090.5 | 7015.91
19 | GGLGM-MLTAS |  |  | 836.403 | 0

Row | Substance | Kobs [1, 3] [M⁻¹ s⁻¹] | Kobs [2, 4] [M⁻¹ s⁻¹] | Kobs [1, 5] [M⁻¹ s⁻¹] | Kobs [2, 6] [M⁻¹ s⁻¹]
20 | GLAVG-LRTAS |  |  | 12792.1 | 4922.1
21 | GRPHP-LSTAS |  |  | 12792.1 | 8941.32
22 | SGPMH-LRSTA |  |  | 8321.48 | 10866.7
23 | LQPLT-ITASG |  |  | 5090.5 | 12792.1
24 | IQLAW-LTASG |  |  | 12792.1 | 5090.5
25 | GRHQS-LRTAS |  |  | 836.403 | 0
26 | QHLAA-LTASG |  |  | 12792.1 | 484.315
27 | SGPLA-STVTA |  |  | 0 | 3741.87
28 | SGMSS-LKFTA |  |  | 323.705 | 0
29 | EHNLP-LTASG |  |  | 799.117 | 0
30 | SGALA-LLDTA |  |  | 0 | 619.843
31 | SGVWP-LVKTA | 0 | 0 |  | 
32 | NRIGN-FTASG |  |  | 7815.03 | 0
33 | TGSWP-LTASG | 0 | 113.394 |  | 
34 | GGSGR-LVMTY | 142.481 | 261.974 |  | 
35 | QVPVF-LTASG |  |  | 12792.1 | 8321.48
36 | RRVLA-LTASG | 12792.1 | 12792.1 |  | 
37 | SGAYH-LQQTA |  |  | 0 | 762.325
38 | SGNLA-LKQTA |  |  | 0 | 0

Now from value to substance:

Row | Kobs [1, 3] [M⁻¹ s⁻¹] | Kobs [2, 4] [M⁻¹ s⁻¹] | Kobs [1, 5] [M⁻¹ s⁻¹] | Kobs [2, 6] [M⁻¹ s⁻¹] | Substance
39 | 1418.96 | 1513.13 |  |  | FTVHM-LTASG
40 |  |  | 3964.21 | 6688.74 | RDVLW-LTASG
41 |  |  | 5090.5 | 201.585 | IGYAW-MTASG
42 |  |  | 1196.62 | 484.315 | GSGNF-LRKMT
43 |  |  | 12792.1 | 7815.03 | RVIRH-LTASG
44 |  |  | 7015.91 | 5090.5 | YRVAF-LTASG
45 | 4470.66 | 762.325 |  |  | GGSGQ-LFNVG
46 |  |  | 12792.1 | 6688.74 | SGPAP-LVLTA
47 | 2409.72 | 484.315 |  |  | RNVNF-LTASG
48 |  |  | 3741.87 | 10866.7 | SGPHW-LNATA
49 |  |  | 12792.1 | 9740.44 | VVAVS-LTASG
50 |  |  | 201.585 | 231.616 | GSGQG-LKVRT
51 |  |  | 12792.1 | 9740.44 | GSPVW-LRTAS
52 |  |  | 0 | 0 | SGIQT-MKVTA
53 |  |  | 551.253 | 355.093 | WSVQL-LTASG
54 |  |  | 690.17 | 551.253 | EVSQH-LTASG
55 |  |  | 142.481 | 1030.73 | VRTMA-LTASG
56 | 1154.21 | 2218.08 |  |  | GGSGP-LHQTK
57 |  |  | 551.253 | 1327.88 | GRVWH-LQTAS
58 |  |  | 12792.1 | 12792.1 | RVPRG-LTASG
59 |  |  | 0 | 27.918 | EKVML-MTASG

Row | Kobs [1, 3] [M⁻¹ s⁻¹] | Kobs [2, 4] [M⁻¹ s⁻¹] | Kobs [1, 5] [M⁻¹ s⁻¹] | Kobs [2, 6] [M⁻¹ s⁻¹] | Substance
60 |  |  | 5269.78 | 0 | SSYAH-LTASG
61 |  |  | 12792.1 | 12792.1 | VFALN-LTASG
62 | 1561.44 | 3964.21 |  |  | YSALP-MTASG
63 | 1154.21 | 726.013 |  |  | SGWLN-LRSTA
64 | 484.315 | 451.441 |  |  | WNSLN-LTASG
65 | 7015.91 | 2996.69 |  |  | AMAHS-LTASG
66 |  |  | 762.325 | 201.585 | SGLYG-LTLTA
67 |  |  | 418.952 | 84.609 | SGLGM-LATTA
68 |  |  | 484.315 | 1071.29 | GRAQN-LLTAS
69 | 1071.29 | 1513.13 |  |  | SGPSR-ILMTA
70 |  |  | 12792.1 | 12792.1 | NFPMS-LTASG
71 |  |  | 8321.48 | 4335.13 | TSVLA-LTASG
72 |  |  | 7386.83 | 6131.32 | GQPVP-MLTAS
73 |  |  | 551.253 | 0 | QRANS-ITASG
74 |  |  | 1154.21 | 2837.92 | SGVLS-LRYTA
75 |  |  | 0 | 0 | GVLMR-LNTAS
76 | 3253.29 | 551.253 |  |  | PYAEN-LTASG
77 |  |  | 12792.1 | 12792.1 | VTPLY-LTASG
78 |  |  | 874.197 | 0 | SGLAS-LRLTA
79 |  |  | 5461.43 | 2476.66 | VHVHA-LTASG
